Measured values from the NIST ThermoML archive (doi:10.1016/j.jct.2015.08.014).

Settings: Liquid; for electrical conductivity: Alternating current cell with electrodes; for viscosity: Capillary tube (Ostwald / Ubbelohde) method; for mass density: Vibrating tube method

CCCC[N+]1(C)CCCC1.N#CN=C=[N-] [1-butyl-1-methylpyrrolidinium dicyanamide]
electrical conductivity [S/m], 100 kPa
Settings	273.15 K	283.15 K	293.15 K	298.15 K
Frequency=0.0005 MHz	0.522	0.786	1.122	1.315
Frequency=0.001 MHz	0.522	0.786	1.122	1.316
Frequency=0.0015 MHz	0.522	0.786	1.123	1.316
Frequency=0.002 MHz	0.522	0.786	1.123	1.316
Frequency=0.0025 MHz	0.522	0.786	1.123	1.317
Frequency=0.003 MHz	0.522	0.786	1.123	1.317
Frequency=0.00347222 MHz	0.523	0.786	1.123	1.317
Frequency=0.004 MHz	0.523	0.786	1.123	1.317
Frequency=0.00446429 MHz	0.523	0.786	1.123	1.317
Frequency=0.005 MHz	0.523	0.786	1.123	1.317
Frequency=0.005454 MHz	0.523	0.786	1.123	1.317
Frequency=0.006 MHz	0.523	0.786	1.123	1.317
Frequency=0.00652174 MHz	0.523	0.786	1.123	–
Frequency=0.00694444 MHz	0.523	0.786	1.123	–
Frequency=0.0075 MHz	0.523	0.786	1.123	–
Frequency=0.008 MHz	0.523	0.786	1.123	–
Frequency=0.00857143 MHz	0.523	0.786	1.123	–
Frequency=0.00892857 MHz	0.523	0.786	1.124	–
Frequency=0.00961538 MHz	0.523	0.786	1.124	–
Frequency=0.01 MHz	0.523	0.786	1.124	–

101.33 kPa
Settings	electrical conductivity [S/m]	mass density [kg/m3]	viscosity [mPa·s]
273.15 K	0.523	1027.69	93.95
278.15 K	0.645	1024.82	74.27
283.15 K	0.786	1021.96	59.6
288.15 K	0.943	1019.11	48.6
293.15 K	1.123	1016.28	40.25
